{"source": "ChEMBL document CHEMBL1201862", "about": "“PubChem BioAssay data set” (2004)", "target": "Envelope glycoprotein gp160 (Human immunodeficiency virus 1, UniProt Q6QLK5)", "sequence (Q6QLK5 whole entry, the tested form may be a part)": "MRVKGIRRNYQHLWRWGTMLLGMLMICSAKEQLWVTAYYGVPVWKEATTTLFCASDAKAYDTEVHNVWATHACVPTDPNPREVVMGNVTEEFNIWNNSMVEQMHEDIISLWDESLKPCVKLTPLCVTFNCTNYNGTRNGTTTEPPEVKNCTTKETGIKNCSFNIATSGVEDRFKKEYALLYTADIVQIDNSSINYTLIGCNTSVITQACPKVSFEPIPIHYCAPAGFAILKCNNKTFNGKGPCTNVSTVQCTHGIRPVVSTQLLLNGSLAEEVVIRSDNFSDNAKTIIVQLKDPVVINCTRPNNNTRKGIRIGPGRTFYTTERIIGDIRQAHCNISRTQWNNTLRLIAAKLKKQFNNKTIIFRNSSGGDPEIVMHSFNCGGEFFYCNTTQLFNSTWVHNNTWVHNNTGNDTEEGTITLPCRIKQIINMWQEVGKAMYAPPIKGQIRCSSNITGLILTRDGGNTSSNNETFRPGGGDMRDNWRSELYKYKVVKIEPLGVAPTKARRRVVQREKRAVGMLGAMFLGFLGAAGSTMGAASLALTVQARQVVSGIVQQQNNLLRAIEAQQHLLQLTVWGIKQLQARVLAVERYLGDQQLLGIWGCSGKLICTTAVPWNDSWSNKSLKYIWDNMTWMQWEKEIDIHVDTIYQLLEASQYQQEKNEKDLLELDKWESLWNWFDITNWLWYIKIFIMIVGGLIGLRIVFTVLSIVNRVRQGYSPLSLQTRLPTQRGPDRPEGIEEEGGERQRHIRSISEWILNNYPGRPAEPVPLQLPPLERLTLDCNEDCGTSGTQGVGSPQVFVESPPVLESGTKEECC", "assay": "inhibitors of HIV fusion peptide binding, primary screen, biochemical, uHTS, fluorescence dequenching (AID 1986)", "note": "The source made the active and inactive calls. Rule as the data show it: actives have a measured IC50 and inactives only a lower limit."}
{"compound": "CN(C)S(=O)(=O)c1cccc(-c2nn(-c3ccccc3)cc2/C=C2\\SC(=S)N(CC(=O)O)C2=O)c1", "values": [{"measurement": "IC50", "result": "15.3 µM (active)"}]}
{"compound": "CC1=C(C(=O)OC(C)C)C(c2ccc(Cl)cc2)n2c(s/c(=C\\c3ccc(OCC(=O)O)cc3)c2=O)=N1", "note": "(configuration not stated)", "values": [{"measurement": "IC50", "result": "13.4 µM (active)"}]}
